In patent publication US20200337297A1, “SYSTEM AND METHOD FOR CARBON MONOXIDE […] BLOOD COMPONENTS” (SAFETIN LTD., priority 2017, published 2020):

How the values were obtained:
platelets [1] = assay: Analysis of phosphatidylserine (PS) exposure by FACS (AnnexinV-FITC); type: cell-based, human
Procedure: PS exposure was measured by FACS analysis of bound AnnexinV-FITC using 488 nm for excitation and 530 nm for emission. (Shapira S, Friedman Z et al., “The effect of storage on the expression of platelet membrane phosphatidylserine and the subsequent impact on the coagulant function of stored platelets”, Transfusion 2000, 40:1257-1263)

platelets [2] = assay: ATP quantitation in stored platelets (luminometric ATP bioluminescence kit); type: cell-based, human
Procedure: PC fractions were identically prepared from CO pretreated or untreated blood by consecutive centrifugation in a sterile environment using blood bank conditions. Bicarbonate (4% of PC volume) was then added from a stock solution of 750 mM with agitation to yield a final bicarbonate concentration of 30 mM. Next, the PC was treated with CO in a similar manner to whole blood. Alternatively, rather than applying a vacuum, the containers were flushed for 10 min. with sterile CO while agitating the containers, which were then sealed. The containers were allowed to stay at room temperature of 20-24 degree C.° PRP platelets were treated similarly.
A luminometric ATP was measured by Veritas™ Microplate Luminometer (Tuner Biosystems) by using an ATP bioluminescence kit (CLS II) from Roche (cat No. 11 699 709 001) Mannheim Germany The assay was performed according to the manufacturer's instructions. Briefly: 50 μl of cell lysate (500000 cell per sample) or ATP standard concentration was added in advance to each well in 96 well LIA-white plate (Greiner bio one). Automatic injection of 50 μof substrate solution (luciferin and luciferase) was added to each well by the device and the luminescence was measured. ATP concentrations were calculated based on an ATP standard curve. Each sample was tested in triplicate.

[3] = system: human platelets in rabbit blood circulation; assay: In vivo platelets viability analysis in a rabbit model
Procedure: Female New Zealand white rabbits (2.5-3 kg) were infused with Ethyl Palmytate (EP) to inhibit the Macrophages function (Blajchman M A and Lee D H, “The thrombocytopenic rabbit bleeding time model to evaluate the in vivo hemostatic efficacy of platelets and platelet substitutes”, Transfus Med Rev 1997, 11:95-105). EP solution (10 ml) was prepared by mixing (up to homogeneity) of 2.25 ml EP with 7.75 ml of 5% dextrose containing 1% Tween-20.
[…] Blood samples at time intervals were analyzed by flow cytometry with FITC labeled anti-CD42a for the presence of human platelets (Rothwell S W, Maglasang P et al., “Survival of fresh human platelets in a rabbit model as traced by flow cytometry”, Transfusion 1998, 38:550-556; Leytin V, Allen D J et al., “A rabbit model for monitoring in vivo viability of human platelet concentrates using flow cytometry”, Transfusion 2002, 42:711-718). 100% represented the total number of normalized human platelet in rabbit circulation after 30 min from the injection.

Q: With [C-]#[O+] [COatm, carbon monoxide] as the compound, how does the “PS exposure after transfer to air” value (platelets [1]; 9 days COatm-stored, then re-aerated (FIG. 6d)) read?
A: another fraction returned to very low PS exposure

Q: What about the “PS exposure, change during extended storage” value (platelets [1]; extended storage under COatm up to 9 days) of the same compound?
A: no further changes

Q: What about the PS exposure (platelets [1]; several hours of storage under COatm (FIG. 6b)) of the same compound?
A: most cells are PS-exposed

Q: And the “ATP level relative to the initial value of the ATP of air preserved platelets” value (platelets [2]; 5 days COatm storage, then overnight re-aeration)?
A: 74%

Q: What about the “ATP level relative to the level in fresh PC” value (platelets [2]; platelets stored as PC 5 days under anaerobic COatm) of the same compound?
A: 28%

Q: What about the “time dependent survival of stored human platelets in rabbit blood circulation” value ([3]; 7 days stored, COatm vs air-stored (FIG. 5)) of the same compound?
A: survive longer in vivo than air-stored platelets

Q: And the “survival of stored platelets in rabbit blood circulation” value ([3]; Plt preserved for 9 days, COatm vs air (FIG. 5))?
A: survived for longer in blood circulation
